Consider one molecule from PMC9770960 (Science Advances, 2022).

Structures can show the parent of a compound that is named as a salt.

The assay concerns the target T1, Rec1-resilin (Drosophila melanogaster, UniProt Q9V7U0).
T1 sequence (Q9V7U0 18-322 limits assumed): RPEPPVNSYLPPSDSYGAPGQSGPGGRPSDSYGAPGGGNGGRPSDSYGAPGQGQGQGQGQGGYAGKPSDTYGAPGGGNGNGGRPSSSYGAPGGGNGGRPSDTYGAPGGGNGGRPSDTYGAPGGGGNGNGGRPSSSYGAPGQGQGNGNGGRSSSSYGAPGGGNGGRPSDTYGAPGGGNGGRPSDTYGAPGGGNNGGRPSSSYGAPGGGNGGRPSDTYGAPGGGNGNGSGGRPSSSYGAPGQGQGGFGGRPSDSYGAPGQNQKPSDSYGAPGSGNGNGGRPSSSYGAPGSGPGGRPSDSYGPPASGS
As to the kind of experiment: ANS fluorescence titration, Scatchard plot. In kind it is binding.

What is called Kd is the free concentration of one partner at which half of the binding sites on the other are occupied at equilibrium, for simple one-to-one binding. As for `O=S(=O)(O)c1cccc2cccc(Nc3ccccc3)c12` [ANS, 8-anilino-1-naphthalenesulfonic acid (ammonium salt)], the Kd is 58.8 µM.
